US6517808B1, “Methods for boron delivery to mammalian tissue” (The Regents of the University of California, priority 1993, dated 2003)

Legend:
[1] = chemical stability of borane anions towards water / moisture; type: physicochemical
Source text: The cleanest reaction is observed employing [Ph3PMe][B10H10] in CH2Cl2, but the reaction can be used with several salts of [B10H10]^2− including preferably cesium. tetramethylammonium and triethylammoniuim and with other solvents such as acetonitrile and tetrahydrofuran. […] The substituted boron is indicated by a high field resonance at −43.8 ppm (relative to BF3. Et2O) which is a singlet in the proton coupled spectrum. [Ph3PMe][2-B10H9CO] may be isolated a a light tan solid in 85% yield, or the reaction mixture may be used directly in further reactions. […] [Ph3PMe]2[2-B10H9CO2H] has been confirmed by crystallographic analysis.
A very useful transformation of [2-B10H9CO]^− occurs from its reaction with azide ion in acetonitrile. The carbonyl undergoes a Curtius-type rearrangement to form the isocyanate [2-B10H9NCO]^2−, indicated by an infrared absorption at 2304 cm^−1. […] The [2-B10H9CO]^− ion therefore offers a high-yield route to the production of many boron-rich species for boron neutron capture therapy. Detailed protocols of preparing certain of these species is as follows: […]

EMT6 tumors = experiment: murine biodistribution study (boron concentration in tissues by ICP-AES); type: in vivo, BALB/c mice
Protocol: The concentration of boron can be determined by inductively coupled plasma atomic emission spectroscopy (ICP-AES).
All murine biodistribution studies utilized female BALB/c mice (16-20 g), with EMT6 tumors implanted in the right flank 7-10 days prior to the experiment. […] Injections of liposome emulsions (200 μl) were made in the tail vein. Prior to sacrifice, each mouse was anesthetized with halothane and bled into heparinized syringes via cardiac puncture. The blood was then placed into tared cryogenic tubes. While under anesthesia, the mice were euthanized via cervical dislocation. The tumor, liver, and spleen were dissected and also placed in tared cryogenic tubes. Blood and tissues were stored frozen until analyzed.
Biodistributions are plotted as boron concentration in micrograms of boron per gram of tissue on the Y axis and time in hours on the X axis. In general, four tissues are analyzed: tumor and blood because of their therapeutic interest, and liver and spleen because these tissues are known to competitively bind liposomes in vivo.

For [2-B10H9CO]^−, which sensitivity to moisture ([1]; in the solid state or in solution) is on record?
The sensitivity to moisture was “relatively insensitive to moisture”.

Which “initial distribution (accumulation) in the tumor” value (EMT6 tumors; FIG. 10, free, not liposome-encapsulated, injected in buffer) does the source give for Na3B20H17NH3 [free Na3B20H17NH3] here?
Its value is “about 8 ppm”.

With [2-B10H9NCO]^2− as the substance, how does the “stability in acidic media” value ([1]; acidic media) read?
The value was “rapidly hydrolyzed”.

What about the “stability in neutral aqueous solution” value ([1]; neutral aqueous solution) of the same substance?
Its value is “stable”.

For Na2B10H10 [reference compound], which “tumor uptake begins at (initial tumor boron concentration)” value (EMT6 tumors; FIG. 4, BALB/c mice bearing EMT6 tumors, tail vein injection) is on record?
Its value is 10 µg/g.
